Assay results from patent publication US6677492B2, “Fluoroether compositions and methods for inhibiting their degradation in the presence of a Lewis acid” (Abbott Laboratories, priority 1997, dated 2004).

Tests used:
Assay type in all cases: physicochemical
[1] = Sevoflurane degradation in activated Type III amber glass bottles pre-treated with water-saturated sevoflurane; details: activated glass surface treated with water saturated-sevoflurane prior to heating
Protocol: Sevoflurane was decanted from the five bottles of the Study Sevo Group from Example 6. Each bottle was rinsed thoroughly with fresh sevoflurane. Approximately 125 mL of water-saturated sevoflurane was then put into each bottle. The five bottles were then placed on a mechanical roller for approximately two hours to allow the water to coat the activated glass surfaces. The water-saturated sevoflurane was then drained form each bottle and replaced by 100 mL of sevoflurane containing 400 (spiked) ppm of water. Gas chromatography analysis for all samples was performed after heating at 50° C. for 18 hours, 36 hours, and 178 hours. bishexafluoroisopropyl ether (P2) and total degradants were measured.

[2] = Sevoflurane degradation in activated Type III amber glass bottles, 20 ppm vs 400 ppm water
Protocol: The extent of the degradation of sevoflurane in each of the bottles from Example 5 were quantified by gas chromatography. The ten bottles were divided into two groups, the Control Sevo Group (containing bottles 2, 3, 5, 7, 8) and the Study Sevo Group (containing Bottles 1, 4, 6, 9, 10).
All ten bottles were re-rinsed several times with non-degraded sevoflurane containing about 20 ppm of water. For the five Control Sevo Group bottles, 100 mL of sevoflurane containing about 20 ppm of water was added to each bottle. For the five Study Group bottles, 100 mL of sevoflurane containing about 400 ppm of water (spiked) was added to each bottle.
Gas chromatography for all samples was performed at time zero and after heating at 50° C. for 18 hours. Hexafluoroisopropyl alcohol (HFIP), dimethyleneglycol bishexafluoroisopropyl ether (P2) and total degradants were measured.

[3] = Degradation of sevoflurane in ampules by heat with and without added water; details: Type I clear ampule autoclaved at 119° C. for three hours
Protocol: Approximately 20 mL of sevoflurane was added to a 50 mL Type I clear ampule and approximately 20 mL of sevoflurane and 1300 ppm of water was added to a second ampule. Both ampules were flame-sealed and then autoclaved at 119° C. for three hours. The contents of the two ampules were then analyzed by gas chromatography.

[4] = Degradation of water-spiked sevoflurane in ampules at 60° C. or 40° C.
Protocol: Type I clear glass ampules were employed to study the effect of various levels of water and temperature in inhibiting the degradation of sevoflurane. Approximately 20 mL of sevoflurane and different levels of water ranging from about 109 ppm to about 951 ppm were added to each ampule. The ampules were then flame-sealed. To accelerate the degradation process, samples from each moisture level were placed at two heating conditions. Samples were placed on 60° C. stability station for 144 hours or placed on a 40° C. stability station for 200 hours. The resulting sevoflurane in each of the samples was analyzed by gas chromatography and pH. Hexafluoroisopropyl alcohol (HFIP) and the total degradants of sevoflurane were measured.

[5] = Degradation of sevoflurane with activated alumina at three moisture levels, gas chromatography; details: 50 mg aluminum oxide; 20, 100, 260 ppm water; 60° C., 22 hours; FIG. 1
Protocol: Type III glass consists mainly of silicon dioxide, calcium oxide, sodium oxide and aluminum oxide. Aluminum oxide is a known Lewis acid The glass matrix is normally inert to sevoflurane. However, under certain conditions (anhydrous, acidic), the glass surface can be attacked or altered, exposing sevoflurane to active Lewis acid sites such as aluminum oxide.
The effect of water on the degradation of sevoflurane was studied by adding various amounts of activated alumina to 20 ml of sevoflurane containing the following three levels of moisture: 1) 20 ppm water—measured water, no additional water added; 2) 100 ppm—spiked; and 3) 260 ppm water—spiked.
It will be appreciated that 20 ppm Water is equivalent to […] w/w Water. The samples were placed at 60° C. and analyzed by gas chromatography after 22 hours.

[6] = Degradation of sevoflurane in ampules, water-spiked studies (109 ppm to 951 ppm), autoclaved; details: ampules in Set A and Set B, autoclaved at 119° C. for three hours
Protocol: Type I clear glass ampules were used to study the effect of various levels of water in inhibiting the degradation of sevoflurane. Approximately 20 mL of sevoflurane and different levels of water ranging from about 109 ppm to about 951 ppm were added to each ampule. The ampules were then sealed. A total of ten ampules were filled with sevoflurane and varying amounts of water. Five of the ampules were included in Set A and the other five ampules were included in Set B. The ampules were then autoclaved at 119° C. for three hours. Samples in Set A were placed on a mechanical shaker overnight to allow the moisture to coat the glass surface. Samples in Set B were prepared without equilibrating the water with the glass surface. Several control samples were also prepared. Two non-autoclaved ampules (Control Ampule 1 and Control Ampule 2) and a bottle (Control bottle) were each filled with 20 mL of sevoflurane. No water was added to any of the control samples. Also, the controls samples were not shaken overnight. The levels of hexafluoroisopropanol (HFIP) and total degradants (including methyleneglycol bishexafluoroisopropyl ether, dimethyleneglycol bishexafluoroisopropyl ether, methyleneglycol fluoromethyl hexafluoro isopropyl ether) were measured by gas chromatography.

degradation of sevoflurane [1]: greatly inhibited | HFIP concentration ([2]; Study Sevo Group (400 ppm water)): quite high | amounts of degradants P2 and S1 ([2]; Study Sevo Group (400 ppm water) compared with Control Group (20 ppm water)): much less | degradation of sevoflurane ([2]; Study Sevo Group (400 ppm water), 50° C. for 18 hours): significantly reduced | degradation of sevoflurane (degradant S1) ([2]; addition of 400 ppm of water, activated amber glass bottles, Examples 5 and 6, FIG. 5): inhibited | degradation of sevoflurane (degradant P2) ([2]; addition of 400 ppm of water, activated type III amber glass bottles, Examples 5 and 6, FIG. 4): inhibited | degradation of sevoflurane ([2]; zero hour, compared to zero-hour results in Table 4): no significant degradation | degradation of sevoflurane ([3]; first ampule, no water added, FIG. 2): degraded | degradation of sevoflurane ([3]; second ampule, 1300 ppm of water, FIG. 3): did not degrade | water levels that inhibit degradation of sevoflurane ([4]; 40° C. for 200 hours): higher than 206 ppm | water levels that inhibit degradation of sevoflurane ([4]; 60° C. for 144 hours or longer): higher than 303 ppm | water sufficient to inhibit the degradation of sevoflurane [6]: at least 595 ppm
SMILES: FCOC(C(F)(F)F)C(F)(F)F [sevoflurane, fluoromethyl-2,2,2-trifluoro-1-(trifuoromethyl)ethyl ether]
degradation of sevoflurane [5]: decreases with increasing amounts of water
